Data on one substance can be found in patent US20260166121A1, “COMPOSITIONS AND METHODS FOR THE TREATMENT OF HEMORRHAGIC SHOCK” (Children's Hospital Medical Center, priority 2022, published 2026).

What all share (assay type): in vivo
For assay [1], the system named is AMPKα1 wild-type (WT) and knockout (KO) mice. As to the kind of experiment: Lung myeloperoxidase assay (neutrophil infiltration) after hemorrhagic shock. The following applies: 100 μg/kg intra-arterially, 3 h after resuscitation. An excerpt: (§1) Murine model of hemorrhagic shock. The experiments conformed to the Guide for the Care and Use of Laboratory Animals published by the US National Institutes of Health (Eighth edition, 2011) and had the approval of the Institutional Animal Care and Use Committee. Homozygous AMPKα1 wild-type (WT) and AMPKα1 knockout (KO) mice were established on a C57/BL6 genetic background by the crossbreeding (>10 generations) of a breeding pair provided by Dr. Benoit Viollet of the University of Paris Descartes (Paris, France). For these experiments, female AMPKα1 WT and KO mice were generated by a breeding scheme utilizing heterozygous mutant mice. Female mice were used at random stages of the estrous cycle at the age of 3 to 5 months and assigned to the different experimental groups after routine genotyping by quantitative polymerase chain reaction. All mice were allowed free access to water and a maintenance diet in a 12-h light/dark cycle, with room temperature at 21±2° C. […] Mice were monitored for 3 hours after resuscitation for cardiovascular parameters. […]
Myeloperoxidase assay. Myeloperoxidase (MPO) activity was determined as an index of neutrophil accumulation. […] The rate of change in absorbance was measured by spectrophotometry at 650 nm. MPO activity was defined as the quantity of enzyme degrading […] of hydrogen peroxide/min at 37° C. and expressed in units per 100 mg weight of tissue.

Assay [2] has the same test system. As to the kind of experiment: Plasma levels of cytokines (multiplex array) after hemorrhagic shock. The following applies: AMPKα1 WT or KO mice; 100 μg/kg intra-arterially; 3 h after resuscitation.
Excerpt: as §1
Plasma levels of cytokines. Plasma levels of interleukin (IL)-1β, IL-6, IL-10, IL-17, keratinocyte-derived chemokine (KC), and tumor necrosis factor-α (TNFα) were evaluated by a commercially available multiplex array system (Linco-Research, St. Charles, MO) using the protocol recommended by the manufacturer.

For assay [3] the test system is unchanged. As to the kind of experiment: Transmission electron microscopy of heart tissue mitochondria after hemorrhagic shock. As to conditions: 100 μg/kg intra-arterially.
Excerpt: as §1
Transmission electron microscopy. […] The total number of mitochondria, and the presence of abnormal mitochondria with loose matrix, fragmented cristae and membranes were determined in four consecutive cells in four different sections for each animal by using NIH ImageJ analysis.

In the case of “[Gly14]-Humanin (MAPRGFSCLLLLTGEIDLPVKRRA) [humanin-G, synthetic humanin analogue, serine at position 14 replaced by glycine]”, the “lung MPO activity” value in assay [1] is listed as “significantly reduced”. Further, the “plasma levels of cytokines (IL-1β, IL-6, IL-10, IL-17, KC, TNFα)” value in assay [2] was “did not affect”. For the same substance, the cardiac mitochondrial damage result in assay [3] (AMPKα1 KO mice, 3 h after resuscitation) is reported as “reduced”. Moreover, the “cardiac mitochondrial structural changes” value in assay [3] (AMPKα1 WT mice after hemorrhagic shock) is reported as “No abnormal structural changes”.
